The values that follow come from article PMC4856767 (Cell Research, 2016).

One experiment relates to PXL2^LRR. The experiment is described as follows: In vitro GST pull-down, PXL2^LRR. It counts as binding, Arabidopsis. As to conditions: GS4B resin, wash 10 mM Bis-Tris pH 6.0, 100 mM NaCl; SDS-PAGE, Coomassie blue; Figure 1A.
The test system of a further experiment is PXL1^LRR. The experiment is described as follows: In vitro GST pull-down, PXL1^LRR. The following applies: GS4B resin, wash 10 mM Bis-Tris pH 6.0, 100 mM NaCl; SDS-PAGE, Coomassie blue; Figure 1A. It counts as binding, Arabidopsis.
The target of experiment [1] is T1, extracellular LRR domain of PXY (PXY^LRR, residues 1-647) (Arabidopsis, UniProt Q9FII5 30-647).
T1 sequence: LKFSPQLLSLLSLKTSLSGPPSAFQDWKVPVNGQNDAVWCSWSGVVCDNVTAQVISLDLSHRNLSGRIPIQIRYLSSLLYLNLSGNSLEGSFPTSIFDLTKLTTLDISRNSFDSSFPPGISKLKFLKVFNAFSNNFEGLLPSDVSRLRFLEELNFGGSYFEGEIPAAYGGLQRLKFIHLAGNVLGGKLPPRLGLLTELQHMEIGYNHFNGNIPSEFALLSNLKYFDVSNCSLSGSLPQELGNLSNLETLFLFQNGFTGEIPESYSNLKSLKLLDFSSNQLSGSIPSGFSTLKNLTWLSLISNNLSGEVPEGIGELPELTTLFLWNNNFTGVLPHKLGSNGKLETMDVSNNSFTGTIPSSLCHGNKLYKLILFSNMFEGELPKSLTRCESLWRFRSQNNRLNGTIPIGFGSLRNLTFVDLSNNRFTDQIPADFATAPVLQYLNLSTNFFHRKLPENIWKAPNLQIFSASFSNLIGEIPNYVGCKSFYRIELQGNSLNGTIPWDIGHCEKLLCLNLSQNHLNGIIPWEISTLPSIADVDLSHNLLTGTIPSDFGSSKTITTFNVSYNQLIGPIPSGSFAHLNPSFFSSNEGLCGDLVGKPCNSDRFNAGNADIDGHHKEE
Description: ITC.

Experiment [2] has as its target T1, extracellular LRR domain of PXY …. Description: pull-down.

“Also recorded” adds a separate entry of the source. No end group written: not given here.

Regarding “GST-TDIF: GST tagged-TDIF protein expressed in E. coli strain BL21 (DE3) (HEVPSGPNPISN; also: GST tag, end not given here)”, the “interaction with PXL2^LRR in pull-down” value in the experiment on PXL2^LRR is reported as “can pull-down; also recorded: much lower affinities”. Also, in the experiment on PXL1^LRR, the “interaction with PXL1^LRR in pull-down” value was “can pull-down; also recorded: much lower affinities”.
For REVPSGPNPISN [synthetic mutant peptide TDIF^H1R], the Kd in experiment [1] was ~68 nM.
HEVPSGPNPISN [recombinant GST-TDIF]: the binding result in experiment [2] is given as “binds”.

What is called Kd is a measure of binding affinity in units of concentration.
